What was measured:
primary cortical neurons [1] = experiment: Neurite outgrowth assay of primary cortical neurons (image-based HCS) against paclitaxel-induced neurotoxicity; assay type: cell-based, mouse; conditions: Mus musculus, Primary cortical neuron, mean ± SE; for activity at 0.01 µM: test compound 10 nM + paclitaxel 1 μM, read-out: C: Neurite outgrowth (% of control) of test compound (10 nM) + paclitaxel (1 μM); for activity at 1 µM: test compound 1000 nM + paclitaxel 1 μM, read-out: D: Neurite outgrowth (% of control) of test compound (1000 nM) + paclitaxel (1 μM)
Source text: (§1) Herein, we wish to report that an in vitro neurite outgrowth assay of cortical neurons integrated with an image-based high-content screening (HCS) platform is used to evaluate a commercially available library of 78 minoxidil-related derivatives,[22] leading to the identification of a series of analogues able to prevent or alleviate paclitaxel-induced neurotoxicity. The project began with screening compounds with the primary culture of cortical neurons from neonatal mice. More specifically, cerebral cortex neurons cultured from P0 C57BL/6J mouse pups were incubated with a test compound (10 and 1000 nM) prior to paclitaxel (1 μM) treatment. Subsequently, both neurite outgrowth and synaptogenesis were measured to evaluate the test compounds’ neuroprotective capacity. […] This unique feature is preserved for the core-structure screening of our in-house library in the following subject. Moreover, the substituent at the C4 position appears flexible in terms of structural diversity. Collectively, CSV0A024807, the only one displaying the best neuroprotective potency on both neurite outgrowth and synaptogenesis assays, was thus elected as a potential hit compound for further development.
(§2) Primary cortical or DRG cells were fixed with 4% paraformaldehyde for 15 min following compound and paclitaxel treatment. After washing with PBS, the fixed cells were permeabilized with PBS containing 0.05% Triton X-100 for 20 min and then blocked with commercial blocking buffer (#GTX30963; GeneTex, USA) at room temperature for 1 h. Subsequently, the cortical cells were stained for the extending processes and synaptic puncta by using anti-MAP2 (#MBS502140, 1:500; Mybiosource, USA) and anti-synaptophysin (#ab32127, 1:500; Abcam, UK) overnight. DRG cells were stained for the neurite and neuron nucleus by using anti-β III tubulin (#D71G9, 1:600; Cell Signaling, USA) and anti-NeuN monoclonal antibody (#MAB377, 1:400; Millipore, USA) overnight. On the second day, the samples were washed for 30 min with wash buffer and incubated with secondary antibodies (Alexa-488, 647 1:600; Thermo Fisher, USA) and 4 μg/mL Hoechst 33258 (#94403-1ML, 1:100; Merck, USA) at room temperature for 1 h. In the initial experiments of screening the potential neuroprotective compound for CIPN, ImageXpress^Micro (IXM) high-content imaging system (Molecular Devices, USA) driven by MetaXpress software was used. Images of treated cells were automatically acquired by using a 10× objective. Twenty-one images per well were taken in each of three channels (DAPI, FITC, and Cy5) to create a whole view of the entire neural network. The integrity of the neural network was evaluated using TIF images by importing them into MetaXpress software for analysis using the module for multiparameter, such as Neurite Outgrowth, Cell Scoring, and Transfluor. Furthermore, the score of synaptogenesis was analyzed in AcuityXpress software (Molecular Devices, USA).

primary cortical neurons [2] = experiment: Synaptogenesis assay of primary cortical neurons (image-based HCS) against paclitaxel-induced neurotoxicity; assay type: cell-based, mouse; conditions: for activity at 0.01 µM / activity at 1 µM: Mus musculus, Primary cortical neuron, mean ± SE; for activity at 0.01 µM: test compound 10 nM + paclitaxel 1 μM, read-out: A: Synaptogenesis (% of control) of test compound (10 nM) + paclitaxel (1 μM); for activity at 1 µM: test compound 1000 nM + paclitaxel 1 μM, read-out: B: Synaptogenesis (% of control) of test compound (1000 nM) + paclitaxel (1 μM)
Source text: as §1, §2

| SMILES | activity at 0.01 µM (primary cortical neurons [1]) [%] | activity at 1 µM (primary cortical neurons [1]) [%] | activity at 0.01 µM (primary cortical neurons [2]) [%] | activity at 1 µM (primary cortical neurons [2]) [%] | attenuation of synaptogenesis inhibited by paclitaxel (in words) (primary cortical neurons [2]; test compound 10 and 1000 nM prior to paclitaxel 1 μM, Figure 1A) |
| --- | --- | --- | --- | --- | --- |
| Cc1ccc(S)c(Nc2cc(N)nc(N)n2)n1 [CSV0A0544S0] | 60 ± 2 | 57 ± 5 | 63 ± 5 | 52 ± 8 |  |
| CN(C)c1cc(NNC(=O)c2ccccc2O)nc(N(C)C)n1 [CSV0A2327S0] | 55 ± 1 | 53 ± 5 | 42 ± 2 | 41 ± 5 |  |
| CCN(CC)c1cc(N/N=C/c2ccccc2OC)nc(N(CC)CC)n1 [CSV0A007655] | 45 ± 7 | 51 ± 3 | 39 ± 4 | 41 ± 2 |  |
| CCN(CC)c1cc(N/N=C/c2cccc(O)c2)nc(N(CC)CC)n1 [CSV0A007879] | 42 ± 5 | 35 ± 4 | 38 ± 3 | 26 ± 5 |  |
| CCN(CC)c1cc(NNC(=O)c2ccccc2OC)nc(N(CC)CC)n1 [CSV0A008237] | 56 ± 1 | 50 ± 9 | 45 ± 4 | 45 ± 8 |  |
| O=[N+]([O-])c1ccc(/C=N/Nc2cc(N3CCCCC3)nc(N3CCCCC3)n2)cc1 [CSV0A011998] | 77 ± 5 | 61 ± 6 | 75 ± 1 | 55 ± 2 |  |
| CCCN(CCC)c1cc(N/N=C/c2ccccc2OC)nc(N(CCC)CCC)n1 [CSV0A011999] | 45 ± 5 | 53 ± 3 | 33 ± 4 | 37 ± 2 |  |
| O=[N+]([O-])c1ccc(/C=N/Nc2cc(N3CCCCCC3)nc(N3CCCCCC3)n2)cc1 [CSV0A012753] | 77 ± 7 | 75 ± 7 | 60 ± 1 | 61 ± 4 |  |
| Oc1ccc(/C=N/Nc2cc(N3CCOCC3)nc(N3CCOCC3)n2)cc1 [CSV0A013029] | 58 ± 2 | 54 ± 5 | 72 ± 2 | 84 ± 6 | significantly attenuated |
| Oc1ccc(Br)cc1/C=N/Nc1cc(N2CCOCC2)nc(N2CCOCC2)n1 [CSV0A013030] | 76 ± 5 | 89 ± 11 | 26 ± 2 | 26 ± 3 |  |
| COc1ccccc1/C=N/Nc1cc(N2CCOCC2)nc(N2CCOCC2)n1 [CSV0A013031] | 74 ± 3 | 67 ± 6 | 57 ± 1 | 33 ± 3 |  |
| CCN(CC)c1cc(N/N=C/c2ccc(Cl)cc2)nc(N(CC)CC)n1 [CSV0A020149] | 52 ± 2 | 48 ± 3 | 43 ± 1 | 36 ± 1 |  |
| CCCN(CCC)c1cc(N/N=C/c2cc(Br)ccc2O)nc(N(CCC)CCC)n1 [CSV0A020330] | 27 ± 2 | 45 ± 3 | 22 ± 3 | 45 ± 7 |  |
| CN(C)c1cc(N/N=C/c2cccc(O)c2)nc(N(C)C)n1 [CSV0A021190] | 43 ± 1 | 50 ± 2 | 37 ± 1 | 45 ± 1 |  |
| CN(C)c1cc(NNC(=O)c2ccc(Cl)cc2)nc(N(C)C)n1 [CSV0A023089] | 47 ± 2 | 50 ± 5 | 38 ± 3 | 39 ± 6 |  |

— PMC8958505, “Discovery of Potential Neuroprotective Agents against Paclitaxel-Induced Peripheral Neuropathy” (Journal of Medicinal Chemistry, 2022)
